Converted amounts (≈) assume the structure as drawn.
System: Staphylococcus aureus
Test: Minimum inhibitory concentration of amoxicillin
Type: cell-based
Conditions: susceptible bacteria

MIC: 0.05 to 8 µg/mL (≈ 0.137 to 21.9 µM)
Compound: CC1(C)S[C@@H]2[C@H](NC(=O)[C@H](N)c3ccc(O)cc3)C(=O)N2[C@H]1C(=O)O [Amoxicillin]

From patent US10195158B2, “Bioactive oil based polyesteramide nanofibers for wound healing applications” (Council of Scientific and Industrial Research, priority 2014, dated 2019)
